Publication PMC2692627 (Molecular microbiology, 2009)

Tests used:
[1] = tested on: L. major FV1 promastigotes WT/pXNG4-DHCH1; test: Promastigote growth inhibition, WT/pXNG4-DHCH1 line; type: cell-based; conditions: Leishmania major, read-out: EC50 growth
[2] = tested on: L. major FV1 promastigotes dhch1^−/pXNG4-DHCH1; test: microbe, parasite or virus in culture; type: cell-based, Leishmania major; conditions: for EC50: Leishmania major, read-out: EC50 growth; for Resistance of DHCH1 or FTL overexpressors: DHCH1 or FTL overexpressors vs WT
[3] = molecular target: Leishmania DHFR-TS (Leishmania major, UniProt P07382); test: DHFR activity of the bifunctional L. major DHFR-TS; type: biochemical; conditions: 100 μM; data not shown
Sequence of Leishmania DHFR-TS (P07382 whole entry): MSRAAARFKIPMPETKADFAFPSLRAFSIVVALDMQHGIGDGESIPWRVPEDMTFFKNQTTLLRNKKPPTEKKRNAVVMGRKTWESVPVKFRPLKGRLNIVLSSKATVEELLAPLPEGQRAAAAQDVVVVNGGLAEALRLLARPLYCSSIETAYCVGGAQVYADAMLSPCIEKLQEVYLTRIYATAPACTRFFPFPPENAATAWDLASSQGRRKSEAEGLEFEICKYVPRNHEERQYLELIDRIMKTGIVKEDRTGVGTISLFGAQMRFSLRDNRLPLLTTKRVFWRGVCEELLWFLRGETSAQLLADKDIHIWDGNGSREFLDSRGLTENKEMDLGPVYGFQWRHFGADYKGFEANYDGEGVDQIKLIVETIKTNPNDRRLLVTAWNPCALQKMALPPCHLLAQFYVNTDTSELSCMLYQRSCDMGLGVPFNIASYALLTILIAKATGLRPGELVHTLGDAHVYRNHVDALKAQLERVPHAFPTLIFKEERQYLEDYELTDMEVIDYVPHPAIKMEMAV

[4] = tested on: FTL; conditions: 100 μM; ref Vickers et al., 2008; cited from earlier work
[5] = tested on: L. major FV1 promastigotes WT/pXNG4-FTL; test: Promastigote growth inhibition, WT/pXNG4-FTL line; type: cell-based; conditions: Leishmania major, read-out: EC50 growth
[6] = tested on: L. major FV1 promastigotes WT; test: Promastigote growth inhibition, WT line; type: cell-based; conditions: Leishmania major, read-out: EC50 growth
[7] = tested on: host cell (macrophages); test: Host cell toxicity in the amastigote/macrophage test; type: cell-based; conditions: macrophage host cells; preliminary studies, unpublished data
[8] = molecular target: recombinant Leishmania DHCH1 (Leishmania major, UniProt Q4Q9F9); test: Inhibition of dehydrogenase; type: biochemical; conditions: for Inhibition of L. major DHCH1: tested at 50 μM, data not shown
[9] = tested on: L. major FV1 promastigotes dhch1^−/pXNG4-FTL; test: Promastigote growth inhibition, dhch1−/pXNG4-FTL line; type: cell-based; conditions: Leishmania major, read-out: EC50 growth
[10] = molecular target: human DHFR; conditions: read-out: Ki, human DHFR; ref Temple et al., 1982; cited from earlier work
[11] = molecular target: T1, recombinant Leishmania major DHCH1 (Leishmania major, UniProt Q4Q9F9); test: Kinetic constants of the dehydrogenase reaction of recombinant L. major DHCH1; type: biochemical; conditions: limit of detection 0.3 μmol min^−1 mg^−1; also with 5 mM (K+)PO4 and 5 mM MgCl2
T1 sequence (Q4Q9F9 1-298): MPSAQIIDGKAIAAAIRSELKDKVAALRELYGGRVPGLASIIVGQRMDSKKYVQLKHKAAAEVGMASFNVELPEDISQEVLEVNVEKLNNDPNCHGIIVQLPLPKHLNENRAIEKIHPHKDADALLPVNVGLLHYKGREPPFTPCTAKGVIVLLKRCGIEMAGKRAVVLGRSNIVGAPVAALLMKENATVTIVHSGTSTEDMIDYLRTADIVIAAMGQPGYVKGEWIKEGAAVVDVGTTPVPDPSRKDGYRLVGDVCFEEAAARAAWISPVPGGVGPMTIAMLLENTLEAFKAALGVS

SMILES: Nc1nc(O)c2c(n1)NC[C@@H]1CN(c3ccc(C(=O)N[C@@H](CCC(=O)O)C(=O)O)cc3)C(=O)N21 [5,10-CO-THF, (2S)-2-[[4-[(6aR)-3-amino-1,9-dioxo-5,6,6a,7-tetrahydro-4H-imidazo[3,4-f]pteridin-8-yl]benzoyl]amino]pentanedioic acid]
- EC50 [1]: 5100 ± 800 nM
- EC50 [2]: 4500 ± 500 nM
- Inhibition of the activity of Leishmania DHFR-TS [3]: did not inhibit
- Inhibition of the activity of FTL [4]: did not inhibit
- EC50 [5]: 3700 ± 500 nM
- EC50 [6]: 1100 ± 40 nM
- Concentration above which host cell toxicity was seen [7]: above 10 μM
- Ki [8]: 105 nM
- EC50 [9]: 3300 ± 300 nM
- Ki [10]: > 100000 nM

SMILES: CC(C)c1nc2nc(N)nc(N)c2nc1C(C)C [Compound 25, 2,4-Diamino-6,7-diisopropylpteridine]
- Inhibition of L. major DHCH1 [8]: not inhibited

SMILES: Nc1nc(N)c2cc(Oc3ccc(Cl)c(Cl)c3)ccc2n1 [Compound 34, 2,4-diamino-6-(3,4-dichlorophenoxy)-quinazoline]
- Resistance of DHCH1 or FTL overexpressors [2]: did not show resistance
- EC50 [2]: 760 ± 80 nM
- EC50 [6]: 680 ± 90 nM
- Inhibition of L. major DHCH1 [8]: not inhibited
- EC50 [9]: 540 ± 60 nM

SMILES: Nc1nc(N)c(CCCc2ccccc2)c(Cc2ccccc2)n1 [Compound 70, 2,4-diamino-6-benzyl-5-(3-phenylpropyl)-pyrimidine]
- Resistance of DHCH1 or FTL overexpressors [2]: did not show resistance
- EC50 [2]: 400 ± 50 nM
- EC50 [6]: 440 ± 50 nM
- Inhibition of L. major DHCH1 [8]: not inhibited
- EC50 [9]: 420 ± 40 nM

SMILES: CN(Cc1cnc2nc(N)nc(N)c2n1)c1ccc(C(=O)N[C@@H](CCC(=O)O)C(=O)O)cc1 [Methotrexate]
- Resistance of DHCH1 or FTL overexpressors [2]: did not show resistance
- EC50 [2]: 41 ± 2 nM
- EC50 [6]: 36 ± 1 nM
- Inhibition of L. major DHCH1 [8]: not inhibited
- EC50 [9]: 40 ± 2 nM

SMILES: NC(=O)c1ccc[n+]([C@@H]2O[C@H](COP(=O)([O-])OP(=O)(O)OC[C@H]3O[C@@H](n4cnc5c(N)ncnc54)[C@H](O)[C@@H]3O)[C@@H](O)[C@H]2O)c1 [NAD^+]
- Dehydrogenase activity with the coenzyme [11]: no activity detected
